The source of these data is US20020132758A1, “Method for identifying compounds to treat medical pathologies associated with molecular crystallization” (priority 2001, published 2002).

The structures appear in SMILES notation. Converted amounts (≈) assume the structure as drawn.

The data set in a line: Water solubility of cholesterol at 37° C. determined by HPLC. The class given is physicochemical. As to the method: Reference is made to two chemical compounds: pure cholesterol (C-pure), and modified cholesterol (C-mod). C-mod is made by partial thermal degradation of C-pure. As a consequence, C-mod is structurally very similar, but not identical, to C-pure. In the first of three steps to this example, a quantity of C-mod is produced by heating 10 grams of dry C-pure in the presence of oxygen for 30 minutes at 134° C., which is a temperature that is 15° below the melting point of the pure substance. In a second step to this example, 10 mg of C-pure is added to one liter of distilled water. The resulting suspension is then stirred at 50° C. for two hours, followed by stirring at 37° C. for 6 hours. The concentration of solute in solution at 37° is then determined by an HPLC analytical method. […] In the third and final step to this example, the process of the second step is repeated with 10 mg of C-pure in one liter of distilled water, and 10 mg of C-mod is also added to the initial suspension. In this case, HPLC determination of the concentration of C-pure in the supernatant solution results in a finding of 1.2 mg/100 mL. […] This increase in apparent solubility of C-pure is considered to be a consequence of the selective inhibition of crystal nucleation and growth, due to the presence of molecules that are similar to but not identical to those of the solute.

Regarding `CC(C)CCC[C@@H](C)[C@H]1CC[C@H]2[C@@H]3CC=C4C[C@@H](O)CC[C@]4(C)[C@H]3CC[C@]12C` [C-pure, cholesterol], the “concentration of C-pure in the supernatant solution (apparent solubility)” value (10 mg C-pure plus 10 mg C-mod in one liter distilled water, 37° C., HPLC specific to C-pure) was found to be 1.2 mg/100 mL. Moreover, the solubility (thermodynamic) – broadly, the concentration in solution at equilibrium with solid – (thermodynamic from solid, 10 mg C-pure in one liter distilled water, stirred 50° C. 2 h then 37° C. 6 h, HPLC, no C-mod) came to 4.5 µg/mL (≈ 11.6 µM).
